Holding throughout (assay): Cysteine liganding, probe competition
Holding throughout (format): binding

Assay [1] deals with T1, ATP6V1A V-type proton ATPase catalytic subunit A (Homo sapiens, UniProt P38606).
T1 construct: 200 μL of lysate containing 5 mg/ml proteome was treated with 2 μL of 100× compound stock; endogenous in cells
The settings on record: for Liganded: ATP6V1A Res# 277, uniprot P38606. The procedure, abridged:
(§1)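 Steps: sonicate cells in cold PBS; treat 5 mg/ml lysate with compound (25° C, 1 hr); add desthiobiotin iodoacetamide probe from a 10 mM stock (25° C, 1 hr); precipitate, reduce, alkylate, digest with trypsin; capture labelled peptides on streptavidin for analysis.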

In assay [2] the target is T2, CEP44 Centrosomal protein of 44 kDa (Homo sapiens, UniProt Q9C0F1).
T2 construct: 200 μL of lysate containing 5 mg/ml proteome was treated with 2 μL of 100× compound stock; endogenous in cells
T2 sequence (Q9C0F1 1-390): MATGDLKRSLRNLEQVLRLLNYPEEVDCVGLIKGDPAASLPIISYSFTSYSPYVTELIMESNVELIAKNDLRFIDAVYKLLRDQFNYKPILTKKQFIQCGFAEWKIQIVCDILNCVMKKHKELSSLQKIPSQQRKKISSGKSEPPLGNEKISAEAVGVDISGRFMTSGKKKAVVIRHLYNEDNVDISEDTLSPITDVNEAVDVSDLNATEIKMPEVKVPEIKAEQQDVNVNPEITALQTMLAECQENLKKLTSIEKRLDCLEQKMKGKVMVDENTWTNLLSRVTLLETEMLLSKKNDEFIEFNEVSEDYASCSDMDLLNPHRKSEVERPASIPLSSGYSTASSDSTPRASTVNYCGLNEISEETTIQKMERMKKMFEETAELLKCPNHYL
The procedure, abridged:
as §1

In assay [3] the target is T3, GAMT Guanidinoacetate N-methyltransferase (Homo sapiens, UniProt Q14353).
T3 construct: 200 μL of lysate containing 5 mg/ml proteome was treated with 2 μL of 100× compound stock; endogenous in cells
The procedure, abridged:
as §1

Assay [4] concerns the target T4, RNF20 E3 ubiquitin-protein ligase BRE1A (Homo sapiens, UniProt Q5VTR2).
T4 construct: Cells were resuspended in cold PBS on ice and sonicated with a probe sonicator to achieve lysis; endogenous in cells
The method in brief:
as §1

A further assay concerns the target T5, TAPBP Tapasin (Homo sapiens, UniProt O15533).
T5 construct: Cells were resuspended in cold PBS on ice and sonicated with a probe sonicator to achieve lysis; endogenous in cells
T5 sequence (O15533 21-448): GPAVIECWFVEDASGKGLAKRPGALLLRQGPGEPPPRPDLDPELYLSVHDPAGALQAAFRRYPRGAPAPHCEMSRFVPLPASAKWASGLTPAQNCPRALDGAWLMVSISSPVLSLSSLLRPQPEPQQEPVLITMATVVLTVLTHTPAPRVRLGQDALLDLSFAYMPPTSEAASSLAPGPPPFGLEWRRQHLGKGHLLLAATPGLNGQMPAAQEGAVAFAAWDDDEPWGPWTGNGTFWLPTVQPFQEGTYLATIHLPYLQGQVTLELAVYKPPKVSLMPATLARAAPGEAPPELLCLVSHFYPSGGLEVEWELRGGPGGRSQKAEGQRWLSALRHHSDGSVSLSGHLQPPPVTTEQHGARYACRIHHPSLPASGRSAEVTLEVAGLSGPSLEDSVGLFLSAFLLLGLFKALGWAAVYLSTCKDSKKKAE
The method in brief:
as §1

The source of these data is US20200239530A1, “COMPOUNDS AND METHODS OF MODULATING PROTEIN DEGRADATION” (Vividion Therapeutics, Inc., priority 2017, published 2020).

T4 sequence (Q5VTR2 whole entry): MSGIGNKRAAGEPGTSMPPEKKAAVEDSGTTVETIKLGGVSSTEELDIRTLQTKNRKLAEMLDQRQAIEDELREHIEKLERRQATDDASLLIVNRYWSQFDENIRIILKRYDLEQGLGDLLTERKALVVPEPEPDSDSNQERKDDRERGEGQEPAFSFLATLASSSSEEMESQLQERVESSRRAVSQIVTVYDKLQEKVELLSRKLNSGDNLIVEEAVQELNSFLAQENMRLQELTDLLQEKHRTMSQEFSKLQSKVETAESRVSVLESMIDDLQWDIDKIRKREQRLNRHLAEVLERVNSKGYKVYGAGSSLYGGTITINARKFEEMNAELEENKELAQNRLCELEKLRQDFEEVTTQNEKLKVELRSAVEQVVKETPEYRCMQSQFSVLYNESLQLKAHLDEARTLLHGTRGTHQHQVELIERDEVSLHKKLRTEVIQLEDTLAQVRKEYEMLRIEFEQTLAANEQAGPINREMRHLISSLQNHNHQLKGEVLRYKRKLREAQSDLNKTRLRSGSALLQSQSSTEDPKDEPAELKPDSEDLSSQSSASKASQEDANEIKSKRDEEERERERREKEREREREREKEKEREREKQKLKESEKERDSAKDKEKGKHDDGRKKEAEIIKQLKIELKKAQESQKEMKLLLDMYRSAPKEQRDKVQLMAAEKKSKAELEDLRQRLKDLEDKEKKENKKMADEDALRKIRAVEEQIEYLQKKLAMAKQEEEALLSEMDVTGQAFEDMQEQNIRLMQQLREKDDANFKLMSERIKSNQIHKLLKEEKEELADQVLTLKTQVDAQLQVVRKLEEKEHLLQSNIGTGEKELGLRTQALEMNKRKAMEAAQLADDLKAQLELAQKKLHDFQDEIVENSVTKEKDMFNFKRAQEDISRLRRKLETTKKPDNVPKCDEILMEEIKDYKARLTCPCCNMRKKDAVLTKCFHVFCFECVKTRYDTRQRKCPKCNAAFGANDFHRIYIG
T1 sequence (P38606 whole entry): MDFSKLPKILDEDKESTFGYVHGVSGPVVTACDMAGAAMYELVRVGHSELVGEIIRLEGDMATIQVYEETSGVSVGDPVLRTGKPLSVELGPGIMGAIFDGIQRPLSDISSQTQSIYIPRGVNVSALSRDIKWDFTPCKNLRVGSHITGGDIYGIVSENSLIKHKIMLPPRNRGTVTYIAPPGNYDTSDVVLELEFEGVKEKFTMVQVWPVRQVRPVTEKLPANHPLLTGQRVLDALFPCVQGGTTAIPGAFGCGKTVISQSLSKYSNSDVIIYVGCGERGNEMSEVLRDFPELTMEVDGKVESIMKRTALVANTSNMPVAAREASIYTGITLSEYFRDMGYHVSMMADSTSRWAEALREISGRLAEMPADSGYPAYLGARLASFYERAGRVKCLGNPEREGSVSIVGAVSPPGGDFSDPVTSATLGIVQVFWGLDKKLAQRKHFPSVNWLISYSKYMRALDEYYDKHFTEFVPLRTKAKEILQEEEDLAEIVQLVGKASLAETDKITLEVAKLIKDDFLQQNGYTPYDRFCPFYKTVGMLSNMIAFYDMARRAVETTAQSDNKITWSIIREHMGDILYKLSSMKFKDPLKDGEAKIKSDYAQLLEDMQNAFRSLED

Regarding `COc1ccc2c(c1)CCCN2C(=O)CCl` [KB02], the Liganded entry was “YES” in assay [1]; “YES” in assay [2] (CEP44 Res# 28, uniprot Q9C0F1); “YES” in assay [3] (GAMT Res# 91, uniprot Q14353); “YES” in assay [4] (RNF20 Res# 383, uniprot Q5VTR2); “YES” on TAPBP Tapasin (TAPBP Res# 440, uniprot O15533).

On to `O=C(CCl)Nc1cc(C(F)(F)F)cc(C(F)(F)F)c1` [KBO3], for which the Liganded entry in assay [1] is listed as “YES”. Also, the “100 Max” value in assay [1] (uniprot P38606) was 27.98; in assay [2] (uniprot Q9C0F1, in % (unit assumed)), 14.85; in assay [3] (uniprot Q14353), −9.9; in assay [4] (uniprot Q5VTR2), 11.0; at TAPBP Tapasin (uniprot O15533) it was 31.4264. Also, the 100 ave is recorded as 18.165 in assay [1] (uniprot P38606); 14.85 in assay [2] (uniprot Q9C0F1); −25.93 in assay [3] (uniprot Q14353); 0.6 in assay [4] (uniprot Q5VTR2); 28.54 on TAPBP Tapasin (uniprot O15533). The “500 Max” value in assay [1] (uniprot P38606) came out at 76.55; in assay [2] (uniprot Q9C0F1, unit assumed), 69.9%; in assay [3] (uniprot Q14353, in % (unit assumed)), 16.85; in assay [4] (uniprot Q5VTR2) it was 37.3; at TAPBP Tapasin (uniprot O15533), 68.7451. In addition, the 500 ave in assay [1] (uniprot P38606) is recorded as 69.985; in assay [2] (uniprot Q9C0F1), 69.9; in assay [3] (uniprot Q14353) it was 6.05; in assay [4] (uniprot Q5VTR2), 32.6; on TAPBP Tapasin (uniprot O15533), 68.7451.
